Experiment [1] deals with Raji, human Burkitts lymphoma cells. Briefly: Cell-MTS proliferation assay, Raji. The experiment is classed as cell-based. Conditions: Homo sapiens, 168 hr. The essentials:
(§1)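 Seeded for ~90% confluence at 7 days (Raji 15,000, HL-60 5,000, NCI-H460 3,000 cells/well); compound added 24 h post-plating as 11-point dilution, 100 μM to 2.0 nM final.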
A general note: Tetrazolium dyes change colour on reduction, which living cells bring about.

The subject of experiment [2] is HL-60, human proleukemia cells. The experiment can be described thus: Cell-MTS proliferation assay, HL-60. The format is cell-based. To be noted: Homo sapiens, 168 hr. In a few lines:
as §1

The target in another experiment is BRD4(BD1) (Homo sapiens (Human), UniProt O60885). Briefly: In vitro enzyme inhibition assay (BRD4 AlphaScreen). The experiment is classed as binding. The essentials:
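His-tagged BRD4 tested by AlphaScreen for binding of biotinylated H4K5/8/12/16-tetraacetyl peptide. After 20 min at room temperature, streptavidin donor and nickel chelate acceptor beads added (5 μg/mL final each). IC50 determined.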
A general note: Alpha assays give light when donor and acceptor beads are brought close together.

The test system of experiment [3] is NCI-H460, human non-small cell lung cancer cells. Briefly: Cell-MTS proliferation assay, NCI-H460. To be noted: Homo sapiens, 168 hr. The format is cell-based. The procedure:
The Cell-MTS assay is a 7-day plate-based colorimetric assay which quantifies the amount of newly generated NADH in the presence or absence of test compound. The NADH level is used for the quantification of cancer cell proliferation.
Established cancer cell lines with a variety of driving mutations were obtained from American Type Culture Collection (ATCC) and routinely passaged according to ATCC protocols. For routine assay, these cells were seeded at densities which enabled ˜90% confluence after 7 days of culture. Raji, human Burkitts lymphoma cells, (cMYC) were seeded at 15,000 cells per 96-well. HL-60, human proleukemia cells, (NRAS, p16, p53, c-Myc amplified) were seeded at 5,000 cells per 96-well. NCI-H460, human non-small cell lung cancer cells, (KRAS, PIK3CA, STLK11, p16) were seeded at 3,000 cells per 96-well. 24 hr after plating, cells received an 11-point dilution of test compound with final concentration ranges from 100 μM to 2.0 nM. […] At the end of this incubation period, 80 μL of media is removed and 20 μL of CellTiter 96® AQueous Non-Radioactive Cell Proliferation Assay soln (Promega) was added. The cells were incubated until the OD490 was >0.6. IC50 values were calculated using the IDBS XLfit software package and include background subtracted OD490 values and normalization to DMSO controls. Cellular proliferation IC50 values were uploaded and archived using the Chem Biography Platform.

The mark [4] stands for this setting: in vitro enzyme inhibition assay.
Where [5] appears, read: NCI-H460, Cell-MTS proliferation.
Where [6] appears, read: Cell-MTS proliferation, Raji cells.
[7] abbreviates: Cell-MTS proliferation, HL-60 cells.
[8] abbreviates: Cell-MTS proliferation, NCI-H460 cells.

For ten compounds, IC50 results are on record in US10023592B2, “Bromodomain inhibitors” (Celgene Quanticel Research, Inc., priority 2013, dated 2018).

`CCCOc1ccc(S(=O)(=O)CC)cc1-c1cn(C)c(=O)c2cnc(-c3cnn(C)c3)nc12` [Example 225, 8-(5-ethylsulfonyl-2-propoxyphenyl)-6-methyl-2-(1-methylpyrazol-4-yl)pyrido[4,3-d]pyrimidin-5-one]: the IC50 (as a rule, the concentration at which inhibition is half-maximal) in experiment [1] (Raji, Cell-MTS proliferation) was below 500 nM; in experiment [2] (HL-60, Cell-MTS proliferation), below 500 nM; against BRD4(BD1) (setting [4]), below 500 nM; in experiment [3] (setting [5]), above 5000 nM.

With `CCS(=O)(=O)Cc1ccc(Oc2ccc(F)cc2F)c(-c2cc(OCC(F)(F)F)c(=O)n(C)c2)c1` [Example 292, 5-[2-(2,4-difluorophenoxy)-5-(ethylsulfonylmethyl)phenyl]-1-methyl-3-(2,2,2-trifluoroethoxy)pyridin-2-one], the IC50 in experiment [1] (Raji, Cell-MTS proliferation) was 500 to 5000 nM; in experiment [2] (HL-60, Cell-MTS proliferation) it was below 500 nM; at BRD4(BD1) (setting [4]) it was below 500 nM; in experiment [3] (setting [5]), above 5000 nM.

For the compound `Cn1cc(-c2cc(NS(C)(=O)=O)ccc2Oc2ccc(F)cc2F)c2occc2c1=O` [Example 380, N-[4-(2,4-difluorophenoxy)-3-(5-methyl-4-oxofuro[3,2-c]pyridin-7-yl)phenyl] methanesulfonamide], the half-maximal inhibitory concentration (IC50) is below 500 nM in experiment [1] (setting [6]), below 500 nM in experiment [2] (setting [7]), below 500 nM against BRD4(BD1) (setting [4]) and above 5000 nM in experiment [3] (setting [8]).

In the case of `Cn1cc(-c2cc(S(C)(=O)=O)ccc2OCC2CC2)c2cc(C(N)=O)sc2c1=O` [Example 267, 4-[2-(cyclopropylmethoxy)-5-methylsulfonylphenyl]-6-methyl-7-oxothieno[2,3-c]pyridine-2-carboxamide], the IC50 is 500 to 5000 nM in experiment [1] (Raji, Cell-MTS proliferation); below 500 nM in experiment [2] (HL-60, Cell-MTS proliferation); below 500 nM on BRD4(BD1) (setting [4]); above 5000 nM in experiment [3] (setting [5]).

In the case of `Cn1cc(-c2cc(S(C)(=O)=O)ccc2OCC2CC2)n2cncc2c1=O` [Example 130, 5-[2-(cyclopropylmethoxy)-5-methylsulfonylphenyl]-7-methylimidazo[1,5-a]pyrazin-8-one], the IC50 in experiment [1] (Raji, Cell-MTS, class symbols A/B/C) is 500 to 5000 nM; in experiment [2] (HL-60, Cell-MTS, class symbols A/B/C) it was below 500 nM; on BRD4(BD1) (class symbols A/B/C), below 500 nM; in experiment [3] (NCI-H460, Cell-MTS, class symbols A/B/C), above 5000 nM.

Consider `Cn1cc(-c2nc(CS(C)(=O)=O)ncc2OCC2CC2)c2ccccc2c1=O` [Example 143, 4-[5-(cyclopropylmethoxy)-2-(methylsulfonylmethyl)pyrimidin-4-yl]-2-methylisoquinolin-1-one], for which the IC50 in experiment [1] (Raji, Cell-MTS proliferation) was 500 to 5000 nM; in experiment [2] (HL-60, Cell-MTS proliferation), 500 to 5000 nM; at BRD4(BD1) (setting [4]), below 500 nM; in experiment [3] (setting [5]), above 5000 nM.

For `CCS(=O)(=O)Nc1ncc(Oc2ccc(F)cc2F)c(-c2cc(C)c(=O)n(C)c2)n1` [Example 169, N-[5-(2,4-difluorophenoxy)-4-(1,5-dimethyl-6-oxopyridin-3-yl)pyrimidin-2-yl]ethanesulfonamide], the IC50 in experiment [1] (Raji, Cell-MTS proliferation) was below 500 nM; in experiment [2] (HL-60, Cell-MTS proliferation) it was below 500 nM; against BRD4(BD1) (setting [4]), below 500 nM; in experiment [3] (setting [5]), above 5000 nM.

Turning to `Cc1cc(-c2cc(OC(C)c3ccccc3)cc(S(C)(=O)=O)c2)cn(C)c1=O` (stereo not shown) [Example 336, 1,3-dimethyl-5-[3-methylsulfonyl-5-(1-phenylethoxy)phenyl]pyridin-2-one], the IC50 in experiment [1] (Raji, Cell-MTS proliferation) was 500 to 5000 nM; in experiment [2] (HL-60, Cell-MTS proliferation), below 500 nM; against BRD4(BD1) (setting [4]), below 500 nM; in experiment [3] (setting [5]), above 5000 nM.

With `Cc1cc(=O)n(C)cc1-c1cc(CS(C)(=O)=O)ccc1Oc1ccc(F)cc1F` [Example 454, 5-[2-(2,4-difluorophenoxy)-5-(methylsulfonylmethyl)phenyl]-1,4-dimethylpyridin-2-one], the IC50 in experiment [1] (setting [6]) was below 500 nM; in experiment [2] (setting [7]), below 500 nM; on BRD4(BD1) (setting [4]), below 500 nM; in experiment [3] (setting [8]), above 5000 nM.

Turning to `Cn1cc(-c2cc(S(C)(=O)=O)ccc2OCC2CC2)c2ccoc2c1=O` [Example 254, 4-[2-(cyclopropylmethoxy)-5-methylsulfonylphenyl]-6-methylfuro[2,3-c]pyridine-7-one], the IC50 in experiment [1] (Raji, Cell-MTS proliferation) was below 500 nM; in experiment [2] (HL-60, Cell-MTS proliferation), below 500 nM; at BRD4(BD1) (setting [4]) it was below 500 nM; in experiment [3] (setting [5]), above 5000 nM.
